We go through 40 compounds from US11046691B1 (IDEAYA BIOSCIENCES, INC., priority 2018, dated 2021).

SMILES strings stand for the structures. Some results are limits rather than exact numbers.

In one assay the target is hMAT2A (Homo sapiens (Human), UniProt P31153). Kind of assay: Phosphate Sensor Fluorescence Assay (MAT2A enzyme inhibition). The note with it: L-methionine 500 uM, ATP 500 uM, class symbols. Format: biochemical. An outline of the steps: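 Recombinant MAT2A preincubated 15 min at room temperature with compound, then reacted 1 h at room temperature with 500 uM L-methionine and 500 uM ATP in Tris pH 7.5 buffer containing PNP/7-MEG.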
Chain of hMAT2A (P31153 whole entry): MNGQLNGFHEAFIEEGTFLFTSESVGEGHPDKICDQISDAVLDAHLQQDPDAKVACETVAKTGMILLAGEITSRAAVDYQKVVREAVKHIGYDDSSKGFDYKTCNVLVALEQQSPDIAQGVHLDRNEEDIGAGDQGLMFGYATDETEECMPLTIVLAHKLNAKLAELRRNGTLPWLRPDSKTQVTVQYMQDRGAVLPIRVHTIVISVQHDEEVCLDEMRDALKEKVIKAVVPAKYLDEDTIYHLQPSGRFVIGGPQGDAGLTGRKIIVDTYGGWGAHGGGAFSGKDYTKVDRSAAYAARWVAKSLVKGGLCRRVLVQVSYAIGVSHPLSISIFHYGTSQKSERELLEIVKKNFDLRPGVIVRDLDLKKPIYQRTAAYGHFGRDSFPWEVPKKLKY
On to `CNc1nc(=O)n(-c2cccc(C(F)(F)F)c2)c2cc(Cl)ccc12` [Example 86, 7-chloro-4-(methylamino)-1-[3-(trifluoromethyl)phenyl]hydroquina-zolin-2-one], for which the IC50 was in the range of 0.2 to 0.5 µM.

The compound `CS(=O)(=O)CCNc1nc(=O)n(-c2ccccc2Cl)c2cc(C3CC3)c(C#N)cc12` [Example 403, 1-(2-chlorophenyl)-7-cyclopropyl-4-((2-(methylsulfonyl)ethyl)amino)-2-oxo-1,2-dihydroquinazoline-6-carbonitrile] displayed an IC50 of 1 to 10 µM.

On to `CNc1nc(=O)n(-c2ccnc(OC)c2)c2nc(C(F)(F)F)ccc12` [Example 90, 1-(2-methoxypyridin-4-yl)-4-(methyl-amino)-7-(trifluoromethyl)pyrido[2,3-d]-pyrimidin-2(1H)-one], for which the IC50 lay in the range of 0.2 to 0.5 µM.

`Cc1ccc2c(NCC(F)F)nc(=O)n(-c3ccccc3)c2n1` [Example 398, 4-[(2,2-difluoroethyl)amino]-7-methyl-1-phenylpyrido[2,3-d]pyrimidin-2(1H)-one] yielded an IC50 of less than 0.2 µM.

`O=c1nc(NC2(CO)CC2)c2ccc(C(F)(F)F)nc2n1-c1ccccc1Cl` [Example 322, 1-(2-chlorophenyl)-4-{[(hydroxy-methyl)cyclopropyl]amino}-7-(trifluoro-methyl)-pyrido[2,3-d]pyrimidin-2(1H)-one] returned an IC50 of less than 0.2 µM.

`CNc1nc(=O)n(-c2ccc3nccn3c2)c2cc(Cl)ccc12` [Example 251, 7-chloro-1-(4-hydroimidazo[1,2-a]-pyridin-6-yl)-4-(methylamino)hydro-quinazolin-2-one] displayed an IC50 of 1 to 10 µM.

`O=c1nc(NCC(F)F)c2ccc(C(F)(F)F)cc2n1-c1ccccc1Cl` [Example 100, 1-(2-chlorophenyl)-4-[(2,2-difluoro-ethyl)amino]-7-(trifluoromethyl)hy-droquinazolin-2-one] returned an IC50 of less than 0.2 µM.

Compound `C[C@@]1(O)CCN(c2nc(=O)n(-c3ccccc3)c3cc(Cl)ccc23)C1` [Example 217, 4-((3R)-3-hydroxy-3-methylpyrrolidin-1-yl)-7-chloro-1-phenylhydroquinazolin-2-one] showed an IC50 of 0.2 to 0.5 µM.

In turn, `CNc1nc(=O)n(-c2ccccc2)c2cc(C(F)F)ccc12` [Example 143, 7-(difluoromethyl)-4-(methylamino)-1-phenylhydroquinazolin-2-one] registered an IC50 of less than 0.2 µM.

As for `O=c1nc(NCC2CC2)c2cc(Cl)c(C3CC3)cc2n1-c1ccccc1Cl` [Example 411], the IC50 was less than 0.2 µM.

For the compound `CO[C@H]1CCN(c2nc(=O)n(-c3ccccc3)c3cc(Cl)ccc23)C1` [Example 196, (S)-7-chloro-4-(3-methoxypyrrolidin-1-yl)-1-phenylquinazolin-2(1H)-one], the IC50 is less than 0.2 µM.

`O=c1nc(NC2CC3(C2)CS(=O)(=O)C3)c2ccc(C(F)(F)F)nc2n1-c1ccccc1Cl` [Example 316, 1-(2-chlorophenyl)-4-((2,2-dioxido-2-thiaspiro[3.3]heptan-6-yl)amino)-7-(trifluoromethyl)pyrido[2,3-d]pyrimidin-2(1H)-one] showed an IC50 of 0.2 to 0.5 µM.

Consider `CCc1cc(C2CC2)cc2c1c(NC)nc(=O)n2-c1ccccc1C` [Example 410, 7-cyclopropyl-5-ethyl-4-(methylamino)-1-(2-methylphenyl)hydroquinazolin-2-one], for which the IC50 was less than 0.2 µM.

The compound `Cc1c(O)cccc1-n1c(=O)[nH]c(=O)c2ccc(Cl)cc21` [Example 110, 7-chloro-1-(3-hydroxy-2-methylphenyl)-1,3-dihydroquinazoline-2,4-dione] came in with an IC50 of less than 0.2 µM.

In turn, `N#CCCNc1nc(=O)n(-c2ccccc2Cl)c2nc(C(F)(F)F)ccc12` [Example 278, 3-((1-(2-chlorophenyl)-2-oxo-7-(trifluoro-methyl)-1,2-dihydropyrido-[2,3-d]pyrimidin-4-yl)amino)-propanenitrile] displayed a 50% inhibitory concentration (IC50) of less than 0.2 µM.

With `C[C@H]1CCCN1c1nc(=O)n(-c2ccccc2)c2nc(C(F)(F)F)ccc12` [Example 345, 4-((2S)-2-methylpyrrolidin-1-yl)-1-phenyl-7-(trifluoromethyl)pyrido[2,3-d]-pyrimidin-2(1H)-one], the IC50 was less than 0.2 µM.

In turn, `CNc1nc(=O)n(-c2cccc(C(N)=O)c2)c2cc(Cl)ccc12` [Example 134, 3-[7-chloro-4-(methylamino)-2-oxo-hydroquinazolin-1-yl]benzamide] showed an IC50 of less than 0.2 µM.

As for `O=c1nc(N2CC[C@@H](O)C2)c2ccc(Cl)cc2n1-c1ccccc1` [Example 239, 4-((3R)-3-hydroxypyrrolidinyl)-7-chloro-1-phenylhydroquinazolin-2-one], the IC50 is less than 0.2 µM.

The compound `CNc1nc(=O)n(-c2cnccc2OC)c2nc(C(F)(F)F)ccc12` [Example 92, 1-(4-methoxypyridin-3-yl)-4-(methyl-amino)-7-(trifluoromethyl)pyrido[2,3-d]pyrimidin-2(1H)-one] returned an IC50 of 0.2 to 0.5 µM.

As to `O=c1nc(N2CC[C@@H](O)C2)c2ccc(Cl)cc2n1-c1ccccc1Br` [Example 87, 4-((3R)-3-hydroxypyrrolidin-1-yl)-1-(2-bromophenyl)-7-chlorohydroquinazolin-2-one], the IC50 was less than 0.2 µM.

As for `Nc1nc(=O)n(-c2ccccc2)c2cc(C3CC3)ccc12` [Example 400, 4-amino-7-cyclopropyl-1-phenylhydro-quinazolin-2-one], the IC50 is less than 0.2 µM.

On to `O=c1nc(NC2CC3(CCC3)C2)c2ccc(C(F)(F)F)nc2n1-c1ccccc1Cl` [Example 245, 1-(2-chlorophenyl)-4-(spiro[3.3]heptan-2-ylamino)-7-(trifluoromethyl)pyrido-[2,3-d]pyrimidin-2(1H)-one], for which the IC50 is less than 0.2 µM.

On to `[2H]C([2H])([2H])Nc1nc(=O)n(-c2ccccc2C)c2nc(C(F)(F)F)ccc12` [Example 272, 4-((methyl-d3)amino)-1-(2-methyl-phenyl)-7-(trifluoromethyl)pyrido[2,3-d]pyrimidin-2(1H)-one], for which the 50% inhibitory concentration (IC50) is less than 0.2 µM.

In turn, `O=c1nc(N2CCCC2)c2ccc(C3CC3)cc2n1-c1ccccc1` [Example 386, 7-cyclopropyl-1-phenyl-4-pyrrolidin-1-ylhydroquinazolin-2-one] returned an IC50 of less than 0.2 µM.

In the case of `CN(C)CCNc1nc(=O)n(-c2ccccc2Cl)c2nc(C(F)(F)F)ccc12` [Example 267, 4-{[2-(dimethylamino)ethyl]amino}-1-(2-chlorophenyl)-7-(trifluoromethyl)-pyrido[2,3-d]pyrimidin-2(1H)-one], the 50% inhibitory concentration (IC50) fell in the range of 1 to 10 µM.

Consider `O=c1nc(NCC(F)F)c2ccc(C(F)(F)F)nc2n1-c1ccccc1` [Example 137, 4-((2,2-difluoroethyl)amino)-1-phenyl-7-(trifluoromethyl)pyrido[2,3-d]pyrimidin-2(1H)-one], for which the IC50 is less than 0.2 µM.

For the compound `O=c1nc(NCC(F)(F)F)c2ccc(C3CC3)cc2n1-c1ccccc1` [Example 385, 7-cyclopropyl-1-phenyl-4-[(2,2,2-trifluoroethyl)amino]hydroquinazolin-2-one], the IC50 was less than 0.2 µM.

In turn, `CNc1nc(=O)n(-c2cccc(Br)c2)c2cc(Cl)ccc12` [Example 401, 1-(3-bromophenyl)-7-chloro-4-(methylamino)hydroquinazolin-2-one] had an IC50 of 0.2 to 0.5 µM.

Turning to `O=c1nc(N[C@H]2C[C@](O)(C(F)(F)F)C2)c2ccc(C(F)(F)F)nc2n1-c1ccccc1Cl` [Example 275, 4-{[(cis)-3-hydroxy-3-(trifluoromethyl)-cyclobutyl]amino}-1-(2-chlorophenyl)-7-(trifluoromethyl)pyrido[2,3-d]-pyrimidin-2(1H)-one], the IC50 lay within 0.5 to 1 µM.

`O=c1nc(N2CC[C@@H](O)C2)c2ccc(C(F)(F)F)cc2n1-c1ccccc1` [Example 145, 4-((3R)-3-hydroxypyrrolidinyl)-1-phenyl-7-(trifluoromethyl)hydro-quinazolin-2-one] displayed an IC50 of less than 0.2 µM.

Compound `O=c1[nH]c(=O)n(-c2ccc3[nH]cnc3c2)c2cc(Cl)ccc12` [Example 340, 1-(1H-benzo[d]imidazol-5-yl)-7-chloro-quinazoline-2,4(1H,3H)-dione] returned a half-inhibitory concentration (IC50) of 0.2 to 0.5 µM.

In turn, `CNc1nc(=O)n(-c2ncccc2Cl)c2cc(Cl)ccc12` [Example 370, 7-chloro-1-(3-chloro(2-pyridyl))-4-(methylamino)hydroquinazolin-2-one] registered an IC50 of less than 0.2 µM.

`O=c1nc(N2CC[C@@H](O)C2)c2ccc(Cl)cc2n1-c1ccc2[nH]ncc2c1` [Example 279, (R)-7-chloro-4-(3-hydroxypyrrolidin-1-yl)-1-(1H-indazol-5-yl)quinazolin-2(1H)-one] gave an IC50 of less than 0.2 µM.

`CNc1nc(=O)n(-c2ccnc(O)c2)c2nc(C(F)(F)F)ccc12` [Example 391, 1-(2-hydroxypyridin-4-yl)-4-(methyl-amino)-7-(trifluoromethyl)-pyrido[2,3-d]pyrimidin-2(1H)-one]: the 50% inhibitory concentration (IC50) is less than 0.2 µM.

The same assay, now with this note: L-methionine 500 uM, ATP 500 uM, numeric bound.
As for `CNc1nc(=O)n(-c2ccccc2)c2cc(C)cnc12` [Example 192, 7-methyl-4-(methylamino)-1-phenyl-pyrido[3,2-d]pyrimidin-2(1H)-one], the IC50 was more than 10 µM.

As for `O=c1[nH]c(=O)n(-c2ccc(O)cc2)c2cc(Cl)ccc12` [Example 229, 7-chloro-1-(4-hydroxyphenyl)-1,3-dihydroquinazoline-2,4-dione], the IC50 is more than 10 µM.

In the case of `CCC(C)c1ccc2c(NC)nc(=O)n(-c3ccccc3)c2c1` (stereo not shown) [Example 382, 4-(methylamino)-7-(methylpropyl)-1-phenylhydroquinazolin-2-one], the IC50 is more than 10 µM.

In the case of `O=c1nc(O)c2c(-c3ccncc3)cc(Cl)cc2n1-c1ccccc1` [Example 291, 7-chloro-4-hydroxy-1-phenyl-5-(pyridin-4-yl)quinazolin-2(1H)-one], the IC50 was more than 10 µM.

`CNc1nc(=O)n(-c2ccccc2)c2cc(Cl)cc(OC3CNC3)c12` [Example 85, 5-azetidin-3-yloxy-7-chloro-4-(methyl-amino)-1-phenylhydroquinazolin-2-one] registered an IC50 of more than 10 µM.

Compound `COc1ccc(F)c(-n2c(=O)[nH]c(=O)c3ccc(Cl)cc32)c1` [Example 311, 7-chloro-1-(2-fluoro-5-methoxyphenyl)-quinazoline-2,4(1H,3H)-dione] had an IC50 of more than 10 µM.

By IC50 is commonly meant the midpoint of a concentration-inhibition curve. Lower therefore signals higher potency.
